Source: US12490743B2, “Method for treatment of crops” (Wobelea PTY LTD, priority 2019, dated 2025)
Values joined by “and” are separate entries in the source; they are usually repeats but may differ in a detail not shown here. Equal entries are not always repeated.

Columns and labels:
[1] = pH of products dissolved in tank water; format: physicochemical; details: 0.8%; for pH after active added in unamended tank water: tank water pH 6.25
Method: The water used throughout the projects is rainwater held in the dark in a plastic tank with stable pH value of 6.25. Controls were set up by replacing actives with tank water only.
Products were dissolved in tank water before application to the agar plants. Tank water (pH 6.25) was adjusted to the respective pH levels prior to adding the actives to determine the change in pH caused by the actives.
Tank water was adjusted to pH 4.0, 5.5, and 7.0 before adding sodium benzoate, sodium metabisulphite and WOB NP1, each at 0.8%.
Tank water was adjusted to pH 7.0, 7.5 and 8.4 before adding sodium benzoate, sodium sulphite and WOB PH1, each at 0.8%.

Botrytis cinerea [2] = assay: Preventative activity: pathogen plugs laid on agar containing product; format: cell-based; details: Example 5; unadjusted water pH; 0.8%; WOB as liquid formulation; 24 hrs
Method: (§1) The fungal and bacterial pathogens Erwinia carotovora (bacterial) and Botrytis cinerea (fungal) were cultured on to Nutrient Agar (NA) and potato dextrose agar (PDA), respectively and incubated at ambient temperature until sporulating or well grown.
(§2) Multiple plates of PDA were inoculated with B. cinerea and allowed to sporulate. Multiple plates of NA were inoculated with E. carotovora and allowed to grow into a thick lawn.
(§3) Plates of agar containing each product (Na metabisulphite, Na Benzoate, WOB NP1 of Example 3) and (Na sulphite, Na Benzoate, WOB PH1) at concentrations equivalent to 0.8% concentration were made up and poured into sterile disposal Petri dishes. Three replicates for each product and pH (4.0 and 7.0) were used.
(§4) Sterile agar discs covered with bacterial cells or fungal hyphae and spores were cut from respective plates of B. cinerea and E. carotovora. Three discs were each laid culture surface down onto the amended agar surface, incubated at ambient temperatures (14-25° C.) and observed for inhibition zones at 24 hours, 48 hours and 7 days.
(§5) Water was used unmodified and agars were made up of the 6 products using them at the pH resulting after dissolving to 0.8% concertation. Curative and preventative plates were prepared as described for Example 4 except that pHs were as dissolved (tank water not adjusted prior to dissolving/diluting product).
(§6) The curative and preventative experiments were repeated according to the method of Example 5 using the liquid WOB NP1 and WOB PH 1 formulations and the solid actives sodium metabisulphite, sodium benzoate and sodium sulphite.
(§7) The liquid WOB formulations were divided into 3 aliquots; one was used immediately—time zero; one stored at ambient temperate (15-27° C.) for one week and experiments repeated; one kept refrigerated (5° C.) for one week and experiments repeated.

Erwinia carotovora [3] = assay: as above; format: cell-based; details: Example 5; unadjusted water pH; 0.8%; WOB as liquid formulation; 24 hrs
Method: as §1, §2, §3, §4, §5, §6, §7

Botrytis cinerea [4] = assay: Curative activity: product-soaked discs laid on pathogen lawn on agar; format: cell-based; details: 0.8%, 24 hrs
Method: as §1, §2
(§8) Plates of PDA and NA were inoculated with fungal spores and bacterial cells, respectively, and allowed to grow into a lawn covering the agar surfaces. Three replicates were used for each product and each pH. Following the results from the preliminary tests, pH 4.0 and 7.0 were selected for all further product pH tests.
(§9) When the lawns were well grown and sporulating in the case of the fungal pathogen, five discs soaked with 200 uL of each product (sodium metabisulphite, sodium benzoate, WOB NP1, sodium sulphite, and WOB PH1) at appropriate pH levels were laid onto the sporulating surface or cell lawn surface for the fungal pathogen and the bacterial pathogen, respectively.
(§10) The plates were incubated at ambient temperature (14-25° C.). Inhibition zones were measured at 24 hours, 48 hours and 7 days.
as §5, §6, §7

Erwinia carotovora [5] = assay: as above; format: cell-based; details: 0.8%, 24 hrs
Method: as §1, §2, §8, §9, §10, §5, §6, §7

[6] = tank water adjusted to pH 4.0 before product added
[7] = tank water adjusted to pH 5.5 before product added
[8] = tank water adjusted to pH 7.0 before product added
[9] = tank water adjusted to pH 7.5 before product added
[10] = tank water adjusted to pH 8.4 before product added
[11] = Example 5, unadjusted water pH, WOB as liquid formulation

Compound	pH of water after product added [1, 6]	pH of water after product added [1, 7]	pH of water after product added [1, 8]	pH of water after product added [1, 9]	pH of water after product added [1, 10]	pH after active added in unamended tank water [1]	Preventative activity on the growth of B. cinerea (Botrytis cinerea [2])	Preventative activity on the growth of E. carotovora (Erwinia carotovora [3])	Curative activity on the growth of B. cinerea (Botrytis cinerea [4]; Example 4, pH 4.0)	Curative activity on the growth of B. cinerea (Botrytis cinerea [4]; Example 4, pH 7.0)	Curative activity on the growth of B. cinerea (Botrytis cinerea [4]; [11])	Curative activity on the growth of E. carotovora (Erwinia carotovora [5]; Example 4, pH 7.0)	Curative activity on the growth of E. carotovora (Erwinia carotovora [5]; Example 4, pH 4.0)	Curative activity on the growth of E. carotovora (Erwinia carotovora [5]; [11])
O=C([O-])c1ccccc1.[Na+] [Na Benzoate, sodium benzoate]	6.15	6.34	6.60 and 6.74	6.80	6.85	4.78	No obvious effect	No obvious effect	No obvious effect	No effect	No obvious effect	No effect		
O=S([O-])S(=O)(=O)[O-].[Na+].[Na+] [Na metabisulphite, sodium metabisulphite]	3.75	5.52	6.14			4.74	No obvious effect	No obvious effect	No effect		No obvious effect		No effect	No obvious effect
O=S([O-])[O-].[Na+].[Na+] [Na sulphite, sodium sulphite]			6.78	6.78	6.99	5.24				No effect				
